Like-named read-outs stand apart in the source and are kept apart here. Marks after values point to notes of the source that are not given here.

By EC50 is commonly meant the midpoint of the concentration-response curve. Lower therefore signals higher potency in that assay. A word on the bioavailability: it is the share of a dose that reaches the circulation, judged against a reference dose that is usually intravenous. The low end stands for poor availability, the high end for good availability. Usually AUC(0-inf) stands for the area under the concentration-time curve extrapolated to infinity. As usually defined, the clearance is the rate of elimination divided by the concentration. For orientation: Cmax means the highest concentration seen after dosing. As usually defined, the Tmax is the time at which the peak concentration occurs.

Series [1] relates to Vero 76 cells.
Series [2] deals with SARS CoV Urbani strain.
In series [3] the test system is SARS CoV Urbani strain. The class given is cell-based, human severe acute respiratory syndrome coronavirus.
Series [4] deals with Vero 76 cells. This is another data set of the same source.
Series [5] relates to TGEV.
The next series can be described thus: in vitro. Particulars: swine.
Another series concerns the target SARS CoV 3CLpro (Severe acute respiratory syndrome coronavirus, UniProt P0C6X7). It is filed as biochemical.
For series [6], the system named is TGEV. The series is described as follows: microbe, parasite or virus in culture. Particulars: Alphacoronavirus 1.
The next series has as its target TGEV 3CLpro (Porcine transmissible gastroenteritis coronavirus, UniProt P0C6Y5). It is filed as biochemical, transmissible gastroenteritis virus.
For series [7] the following is noted: male, Sprague-Dawley, rat, in vivo, 3 mg/kg.
The next series can be described thus: in vivo. Conditions: male, Sprague-Dawley, rat, 3 mg/kg.

Sequence of TGEV 3CLpro (P0C6Y5 2879-3180 limits assumed): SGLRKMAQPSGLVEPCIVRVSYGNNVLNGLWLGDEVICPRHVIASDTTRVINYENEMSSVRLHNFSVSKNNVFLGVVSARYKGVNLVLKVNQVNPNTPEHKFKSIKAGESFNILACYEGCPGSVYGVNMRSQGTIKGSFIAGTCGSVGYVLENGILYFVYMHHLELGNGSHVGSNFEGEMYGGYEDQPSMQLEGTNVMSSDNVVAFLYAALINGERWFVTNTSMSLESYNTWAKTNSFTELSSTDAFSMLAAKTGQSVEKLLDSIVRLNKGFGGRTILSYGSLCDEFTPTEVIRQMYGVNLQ

In the case of interferon alfacon-1 [Infergen™], the “Neutral red uptake assay CC50” value with Vero 76 cells [1] was above 130 µg/mL. Besides, in the series on SARS CoV Urbani strain [2], the “Visual assay EC50” value is below 0.32 µg/mL and the “Visual assay SI (CC50/EC50)” value was above 320. In addition, the “Neutral red uptake assay EC50” value in the series with SARS CoV Urbani strain [3] was found to be 2.4 µg/mL. For the same molecule, the “Visual assay CC50” value in the series with Vero 76 cells [4] was above 100 µg/mL.

For the molecule “3,14a-dihydroxy-6,7-dimethoxyphenanthroindolizidine [Compound 1h]”, in the series with ST cells, the CC50 was determined as 31600 nM. In addition, in the series on TGEV [5], it took 18 ± 1 nM to reach a half-maximal effect (EC50) and the “SI (CC50/EC50)” value stood at 1719.

In the case of `COc1cc2c3c(c4cc(OC)c(OC)cc4c2cc1OC)CN1CCC[C@@H]1C3` [1a′, tylophorine], the CC50 in the series on ST cells (swine) was above 100000 nM. For the same molecule, in the series with TGEV [5], a half-maximal effect (EC50) was put at 95 ± 17 nM and the “SI (CC50/EC50)” value is above 1053.

For the molecule `COc1cc2c3c(c4cc(OC)c(OC)cc4c2cc1OC)CN1CCC[C@@H]1C3` [Compound 1a, Tylophorine], the CC50 in “in vitro” is above 100000 nM. In the series with TGEV [5], the “SI (CC50/EC50)” value is above 1715. Besides, the “Inhibition of SARS CoV 3CLpro enzymatic activity” value at SARS CoV 3CLpro is “did not significantly inhibit”. It took 58 ± 4 nM to reach a half-maximal effect with TGEV [6] (EC50). For the same molecule, the “Visual assay SI (CC50/EC50)” value in the series with SARS CoV Urbani strain [2] is 88. The “Inhibition of TGEV 3CLpro enzymatic activity” value on TGEV 3CLpro is “did not significantly inhibit”. In [7] (iv), the Ctrough worked out at 1.1 ng/mL and the “t1/2 (apparent elimination half-life)” value is on record as 3.9 ^b h. The molecule also had a Ctrough in series [7] (po) of 3.0 ng/mL. The molecule further showed a bioavailability in the series “in vivo” of 65.7%. In “in vivo” (iv), this molecule had an AUC(0-inf) of 772 ng·h/mL and a clearance of 66.8 mL/min/kg. In addition, in the series “in vivo” (po), the total exposure AUC(0-inf) was determined as 507 ng·h/mL, the peak level (Cmax) was 31.9 ng/mL and the time to peak (Tmax) is 1.8 h.

In the series “in vitro”, `COc1ccc2c3c(c4cc(OC)c(OC)cc4c2c1)CN1CCC[C@H]1[C@@H]3O` [Compound 1e, tylophorinine] returned a CC50 above 100000 nM. Moreover, in the series with TGEV [5], the “SI (CC50/EC50)” value is above 1220. A half-maximal effect in the series on TGEV [6] (EC50) was put at 82 ± 8 nM.

These data come from paper PMC7114283 (Antiviral Research, 2010).
